Results taken from patent US11560420B2, “Method for producing antibodies using ovine B-cells and uses thereof” (Roche Diagnostics Operations, Inc., priority 2013, dated 2023).

Tests used:
sIgG+CD45R+ B-cells = assay: IgG secretion by in vitro cultivated pools of sIgG+CD45R+ B-cells (sheep IgG ELISA of supernatants); type: cell-based; conditions: for number of IgG-containing wells compared with basal medium: basal medium supplemented with the factor
Excerpt: (§1) To exemplify the current invention PBMCs were isolated from sheep immunized with a KLH-conjugated hapten and underwent positive panning using the biotinylated hapten and magnetic streptavidin beads to enrich antigen-specific B-cells. Subsequently, B-cells were stained for both surface IgG (sIgG) and the B-cell marker CD45R or CD21. Pools of 50 cells (sIgG^+CD45R^+ or sIgG^+CD21^+) were sorted into 96-well plates using a BD FACS Aria cell sorter. Cells were cultivated in medium supplemented with different factors in order to identify a medium composition that promotes the proliferation of the B-cells as well as the differentiation to IgG secreting cells (i.e. plasma cells)
(§2) In all experiment the basal medium was supplemented with 10% FCS, SAC and sheep TSN. Cells were cultivated in the presence of EL4B5 feeder cells.
(§3) Pools of 50 cells/well of antigen-enriched sIgG^+CD45R^+ B-cells were cultivated in the different media in a 96-well plate in the presence of EL4B5 feeder cells. After one week of cultivation the sheep IgG concentration of the supernatants was analyzed using a sheep IgG ELISA. The results for IMDM as basal medium are presented in FIG. 1 and for DMEM and IMDM as basal medium in the following Table.
(§4) For a more detailed analysis 4 categories of wells were defined: Wells with no IgG producing cells (IgG concentration below limit of detection, i.e. <10 ng/ml), wells with low IgG concentrations (10-50 ng/ml), wells with an average IgG concentration (50-200 ng/ml) and wells with a high IgG concentration (200-400 ng/ml).
(§5) Suffolk-Merino sheep were immunized several times using a KLH-coupled hapten as immunogen (500 μg dose formulated in an adjuvant). Five days before isolation of B-cells sheep were boosted by a subcutaneous application of the immunogen (500 μg dose per animal formulated in an adjuvant). For isolation of B-cells approx. 150 ml EDTA-blood was taken from the animals and mixed with an equal volume of PBS. The diluted blood was loaded on Leucosep™ tubes (Greiner Bio-One, Frickenhausen, Germany) (20 ml per tube) and centrifuged for 15 min. at 800×g at room temperature. After centrifugation the PBMCs (peripheral blood mononuclear cells) were collected, washed with PBS and counted using a counting chamber.
Following washing with PBS the PBMCs were resuspended in FACS Buffer (PBS/1% BSA) at 5×10^7 cells/ml. For positive panning of antigen-specific B-cells, the cells were labeled by incubation with the biotinylated hapten (500 ng/ml) for 30 min. at 4° C. under gentle rotation. Subsequently cells were washed with PBS and resuspended in Labeling Buffer (PBS/2 mM EDTA) at 1×10^7 cells per 90 μl. Cells were incubated with magnetic streptavidin microbeads (Miltenyi Biotec, Bergisch-Gladbach, Germany) for 30 min. at 4° C. under gentle rotation (using 10 μl of the beads per 90 μl of cell suspension). After washing with PBS cells were resuspended in MACS Buffer (PBS/1% BSA/2 mM EDTA) at 2×10^8 cells/ml and loaded on MACS column (Miltenyi Biotec) equilibrated with MACS buffer. Following washing with MACS buffer the magnet was removed from the column and labeled, antigen-specific cells were eluted in MACS buffer.
For staining of B-cells the eluted cell fraction was washed with PBS and resuspended in FACS Buffer at 2×10^7 cells/ml. […]

sIgG+CD21+ B-cells = assay: IgG secretion by in vitro cultivated pools of sIgG+CD21+ B-cells (sheep IgG ELISA of supernatants); type: cell-based
Excerpt: as §1, §2
as §3, with “sIgG^+CD21^+” for “sIgG^+CD45R^+”, “indicated medium” for “different media”, “2” for “1”
as §4, §5
Following washing with PBS the PBMCs were resuspended in FACS Buffer (PBS/1% BSA) at 5×10^7 cells/ml. For positive panning of antigen-specific B-cells, the cells were labeled by incubation with the biotinylated hapten (500 ng/ml) for 30 min. at 4° C. under gentle rotation. Subsequently cells were washed with PBS and resuspended in Labeling Buffer (PBS/2 mM EDTA) at 1×10^7 cells per 90 μl. […]

[1] = tested on: single sIgG+CD21+ B-cells; assay: Sorting and cultivation of single sIgG+CD21+ B-cells, IgG concentration of supernatant by ELISA; type: cell-based, sheep; conditions: for % IgG positive wells: % of total wells
Excerpt: PBMCs were isolated from sheep immunized with a KLH-conjugated hapten, underwent positive panning for enrichment of antigen-specific B-cells and were stained for both sheep sIgG and CD21. Single cells were sorted in 96-well plates using a BD FACS Aria cell sorter. Cells were cultivated in IMDM supplemented with 10% FCS, SAC, sheep TSN and PMA. Cells were cultivated in the presence of EL4B5 feeder cells. After one week of cultivation, the IgG concentration of the supernatant of the cells was analyzed by ELISA.
This experiment was performed again. PBMCs were isolated from sheep immunized with another KLH-conjugated hapten, underwent positive panning for enrichment of antigen-specific B-cells and were stained for both sheep sIgG and CD21. Double-positive single cells were sorted in 96-well plates using a BD FACS Aria cell sorter. Cells were cultivated in IMDM supplemented with 10% FCS, SAC, sheep TSN and PMA in the presence of EL4B5 feeder cells.
In control experiments single cells were cultivated using the same cultivation conditions in the absence of PMA. After one week of cultivation, the IgG concentration of the cell supernatants was analyzed by ELISA. After one week of cultivation in the presence of PMA a total of approx. 16% of total wells contained IgG-secreting B-cell clones. In turn, 35% of the wells with IgG-secreting clones contained a low IgG concentration, 35% contained an average IgG concentration and 30% contained a high IgG concentration. In the absence of PMA none of the wells contained IgG-secreting B-cell clones.
Sheep PBMCs from immunized animals were isolated as described above. Antigen-specific B-cells were enriched by positive panning using the biotinylated antigen and magnetic streptavidin microbeads (Miltenyi Biotec) as described above. Cells were stained using a 1:50 diluted FITC-labeled anti-sheep IgG monoclonal antibody (Clone GT-34) (Sigma-Aldrich) in combination with a 1:10 diluted RPE-labeled anti-sheep CD21 mAb (AbD Serotec). Cells were incubated with the mAbs for 45 min. at 4° C. under gentle rotation. In control experiments aliquots of the cells were stained with the individual mAbs alone (single staining). Unstained cells served as negative control.
After washing with PBS cells were resuspended in FACS buffer and subjected to cell sorting using a FACS Aria I cell sorter (BD Biosciences). Single sIgG^+CD21^+ double positive B-cells were identified and sorted into a 96-well plate (one cell/well) containing 280 μl medium and γ-irradiated murine EL4B5 feeder cells (approx. 5×10^4 feeder cells/well seeded 24 hours before cell sorting into the plates).
The medium for cultivation of single ovine B-cells was IMDM (Gibco) was supplemented with 10% FCS (Hyclone), L-Penicillin-Streptomycin-Glutamine (1×) (Gibco), 55 μM 2-Mercaptoethanol (Gibco), 0.025% Pluronic F-68 (Gibco), sheep TSN (1:20 dilution), SAC (1:10,000 dilution) (Calbiochem) and 1 μg/ml PMA (Sigma-Aldrich).
B-cells were incubated for 7 to 10 days in the medium at 37° C./5% CO2 in a humidified atmosphere. Subsequently the supernatant of the cells was harvested and the IgG concentration was determined by ELISA as described below
A biotin-conjugated monoclonal anti-sheep IgG antibody (cat. #213-062-177, Dianova, Hamburg, Germany) was immobilized on a streptavidin coated 96-well plate (MicroCoat, Bernried, Germany). The mAb (100 μl/well) was used at a concentration of 300 ng/ml in PBS/1% RPLA4 (bovine plasma albumin) (Roche Diagnostics GmbH, Mannheim, Germany) and wells were incubated for 1 hour at room temperature (RT) with the diluted mAb. After washing with Wash Buffer (0.9% NaCl/0.05% Tween) the supernatants of the in vitro cultivated B-cells or serial dilutions of purified polyclonal sheep IgG (Roche) were added to the plates and incubated for 1 h at RT. After washing with Wash Buffer wells were incubated with a donkey anti-sheep IgG (H+L) antibody (1:15,000 dilution in PBS/1% RPLA4) labeled with horseradish peroxidase (Dianova, cat. #713-035-147). […]

[2] = tested on: single sIgG+CD21+ B-cells; assay: Antigen-specificity of IgG secreted by single-cell B-cell clones (antigen-specific ELISA); type: cell-based, sheep; conditions: for % wells with antigen-specific IgG: % of IgG-secreting clones
Experimental: The specificity of the secreted antibodies was analyzed using an antigen-specific ELISA (data not shown).
Additionally, the specificity of the secreted antibodies was analyzed using an antigen-specific ELISA (data not shown).
Biotin-conjugated antigens were immobilized on a streptavidin coated 96-well plate (MicroCoat, Bernried, Germany). The biotinylated antigens (100 μl/well) were used at a concentration of 100-300 ng/ml in PBS/1% RPLA4 (bovine plasma albumin) (Roche Diagnostics GmbH, Mannheim, Germany) and wells were incubated with the diluted antigens for 1 hour at room temperature (RT). After washing with Wash Buffer (0.9% NaCl/0.05% Tween) the supernatants of the in vitro cultivated B-cells or serial dilutions of purified polyclonal sheep IgG (Roche) were added to the plates and incubated for 1 hour at RT. After washing with Wash Buffer wells were incubated with a donkey anti-sheep IgG (H+L) antibody (1:15,000 dilution in PBS/1% RPLA4) labeled with horseradish peroxidase (Dianova, cat. #713-035-147). After incubation for 1 hour at RT the plates were washed with Wash Buffer and signals were detected using ABTS solution (Roche Diagnostics GmbH, Mannheim, Germany) as substrate.

[3] = first experiment, % of wells with IgG-secreting clones
[4] = second experiment, listed as with PMA
[5] = second experiment, % of wells with IgG-secreting clones
[6] = second experiment, % of wells with IgG-secreting clones, listed as with PMA

CCCCCCCCCCCCCC(=O)O[C@@H]1[C@@H](C)[C@@]2(O)[C@@H](C=C(CO)C[C@]3(O)C(=O)C(C)=C[C@@H]23)[C@@H]2C(C)(C)[C@]12OC(C)=O [PMA, Phorbol 12-Myristate-13-Acetate]
wells containing significant concentrations of IgG (>50 ng/ml) (sIgG+CD45R+ B-cells; DMEM basal medium (10% FCS, SAC, sheep TSN)): 64%
wells with an average IgG concentration (50-200 ng/ml) (sIgG+CD45R+ B-cells; IMDM as basal medium): 100%
wells containing significant concentrations of IgG (>50 ng/ml) (sIgG+CD45R+ B-cells; IMDM basal medium (10% FCS, SAC, sheep TSN)): 100%
wells with a high IgG concentration (200-400 ng/ml) (sIgG+CD21+ B-cells; IMDM as basal medium): approx. 50%
wells with an average IgG concentration (50-200 ng/ml) (sIgG+CD21+ B-cells; IMDM as basal medium): approx. 40%
wells containing significant levels of IgG (>50 ng/ml) (sIgG+CD21+ B-cells; addition to the basal medium): approx. 90%
wells with IgG-secreting clones containing a high IgG concentration (200-400 ng/ml) [1, 3]: 14%
wells with IgG-secreting clones containing a low IgG concentration (10-50 ng/ml) [1, 3]: 62%
wells with IgG-secreting clones containing an average IgG concentration (50-200 ng/ml) [1, 3]: 24%
total wells containing IgG-secreting B-cell clones ([1]; first experiment, single cells, IMDM with 10% FCS, SAC, sheep TSN and PMA, EL4B5 feeder cells, one week): 33%
wells with high IgG conc. (number) ([1]; second experiment): 20
wells with low IgG conc. (number) ([1]; second experiment): 23
wells with medium IgG conc. (number) ([1]; second experiment): 23
No. IgG positive wells ([1]; second experiment (another KLH-conjugated hapten), single cells, one week): 66
% IgG positive wells ([1]; second experiment): approx. 16%
% IgG positive wells [1, 4]: 15.7%
wells with high IgG conc. (%) [1, 5]: 30%
wells with low IgG conc. (%) [1, 5]: 35%
wells with medium IgG conc. (%) [1, 5]: 35%
wells with high IgG conc. (%) [1, 6]: 30.3%
wells with low IgG conc. (%) [1, 6]: 34.8%
wells with medium IgG conc. (%) [1, 6]: 34.8%
IgG-secreting clones producing antigen-specific antibodies ([2]; first experiment, % of total IgG-secreting clones): 38%
No. wells with antigen-specific IgG ([2]; second experiment): 19
% wells with antigen-specific IgG ([2]; second experiment): 29%
% wells with antigen-specific IgG [2, 4]: 28.8%

IL-6: human IL-6 (Roche Diagnostics GmbH), 50 ng/ml added to the basal medium
number of IgG-containing wells compared with basal medium (sIgG+CD45R+ B-cells): increase

B1: IL-4: human IL-4 (Peprotech), 10 ng/ml added to the basal medium (protein, UniProt P05112 25-153, looked up)
Interleukin-4: HKCDITLQEIIKTLNSLTEQKTLCTELTVTDIFAASKNTTEKETFCRAATVLRQFYSHHEKDTRCLGATAQQFHRHKQLIRFLKRLDRNLWGLAGLNSCPVKEANQSTLENFLERLKTIMREKYSKCSS
number of IgG-containing wells compared with basal medium (sIgG+CD45R+ B-cells): increase
number of IgG-containing wells compared with basal medium (sIgG+CD21+ B-cells; basal medium supplemented with the factor): increase
